Drawing on the supplement of paper PMC11368000, this text covers POD vs vehicle for 20 molecules.

Bounds are passed on as bounds.

One assay relates to 1535 (donor line of iPSC-derived cardiomyocytes). The experiment in a line: POD (EC05) for decrease in beat frequency (negative chronotrope) vs vehicle; higher = less potent (higher point of departure). Particulars: exposure time: 90 min. As for the experimental part:
(§1)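 Human iPSC-derived cardiomyocytes from 16 donors were exposed for 90 min at 37 °C to each PFAS at 0.1, 1, 10 and 100 µM in 0.5% DMSO, 384-well plates. Kinetic Ca2+ flux (FLIPR) and Hoechst nuclei counts were normalised to vehicle wells and fitted with a hierarchical Bayesian Hill model to give donor-specific PODs: EC05 for beat-rate increase or decrease and for decay-to-rise ratio increase (QT proxy), EC95 for peak-frequency loss (asystole), EC10 for total cell number loss. 0.03 µM is the lower bound.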
On to `O=C(O)C=CC(F)(C(F)(F)F)C(F)(F)F` [3-(Perfluoroisopropyl)-2-propenoic_acid], for which the POD vs vehicle was > 100 µM.
Still for that read-out and setting: next, `O=C(O)CCC(F)(F)C(F)(F)C(F)(F)C(F)(F)C(F)(F)C(F)(F)C(F)(F)F` [3-Perfluoroheptylpropanoic_acid]: > 100 µM; `O=C(O)CCC(F)(F)C(F)(F)C(F)(F)F` [3:3 Fluorotelomer carboxylic acid]: > 100 µM.
For the molecule `O=C(CC(=O)C(F)(F)C(F)(F)F)C(F)(F)F` [3H,3H-Perfluoro-2,4-hexanedione], the POD vs vehicle is > 100 µM.
Same read-out and setting: next, `OCCC(F)(F)C(F)(F)C(F)(F)C(F)(F)F` [4:2 Fluorotelomer alcohol]: > 100 µM; `O=S(=O)(O)CCC(F)(F)C(F)(F)C(F)(F)C(F)(F)F` [4:2 Fluorotelomer sulfonic acid]: > 100 µM.
With `OCC(F)(F)C(F)(F)C(F)(F)C(F)(F)C(F)(F)C(F)(F)F` [6:1 Fluorotelomer alcohol], the POD vs vehicle was > 100 µM.
The same measure, in the same setting: next, `NC(=O)C(F)(F)C(F)(F)C(F)(F)F` [Heptafluorobutyramide]: > 100 µM; `CN(CCO)S(=O)(=O)C(F)(F)C(F)(F)C(F)(F)C(F)(F)C(F)(F)C(F)(F)C(F)(F)C(F)(F)F` [N-Methyl-N-(2-hydroxyethyl)perfluorooctanesulfonamide]: > 100 µM; `NC(=O)C(F)(F)C(F)(F)C(F)(F)C(F)(F)C(F)(F)C(F)(F)C(F)(F)F` [Perfluorooctanamide]: > 100 µM.
On the same count and under the same terms, next, `N=C(N)C(F)(F)C(F)(F)C(F)(F)C(F)(F)C(F)(F)C(F)(F)C(F)(F)F` [Perfluorooctanamidine]: 2.86 µM.

In the next assay the test system is 1368 (donor line of iPSC-derived cardiomyocytes). The description is as above. Particulars: exposure time: 90 min. As for the experimental part:
as §1
Take `NC(=O)C(F)(F)C(F)(F)C(F)(F)C(F)F`: the POD vs vehicle was > 100 µM.
Same read-out and setting: to `OCC(O)CC(F)(F)C(F)(F)C(F)(F)C(F)(F)C(F)(F)C(F)(F)C(F)(F)C(F)(F)F` (centres undefined) [1-(Perfluorofluorooctyl)propane-2,3-diol] belongs > 100 µM; to `CC(O)C(F)(F)C(F)(F)F` (centres undefined) [1-Pentafluoroethylethanol], > 100 µM; to `OCC(F)(F)C(F)(F)C(F)(F)C(F)F` [1H,1H,5H-Perfluoropentanol], > 100 µM.
Same read-out and setting: to `O=S(=O)(OCC(F)(F)F)C(F)(F)C(F)(F)C(F)(F)C(F)(F)F` [2,2,2-Trifluoroethyl_perfluorobutanesulfonate] belongs > 100 µM; to `O=C(O)C(F)(F)C(F)(F)C(F)F` [2,2,3,3,4,4-Hexafluorobutanoic_acid], > 100 µM.
Still for that read-out and setting: next, `NC(O)(C(F)(F)F)C(F)(F)F` [2-Aminohexafluoropropan-2-ol]: > 100 µM; `O=C(O)CCC(F)(F)C(F)(F)C(F)(F)C(F)(F)C(F)(F)F` [2H,2H,3H,3H-Perfluorooctanoic_acid]: > 100 µM; `O=C(O)C=C(C(F)(F)F)C(F)(F)F` [3,3-Bis(trifluoromethyl)-2-propenoic_acid]: > 100 µM.
As to `O=C(O)C=CC(F)(C(F)(F)F)C(F)(F)F` [3-(Perfluoroisopropyl)-2-propenoic_acid], the POD vs vehicle was > 100 µM.
Still for that read-out and setting: next, `O=C(O)CCC(F)(F)C(F)(F)C(F)(F)C(F)(F)C(F)(F)C(F)(F)C(F)(F)F` [3-Perfluoroheptylpropanoic_acid]: > 100 µM; `O=C(O)CCC(F)(F)C(F)(F)C(F)(F)F` [3:3 Fluorotelomer carboxylic acid]: > 100 µM; `O=C(CC(=O)C(F)(F)C(F)(F)F)C(F)(F)F` [3H,3H-Perfluoro-2,4-hexanedione]: > 100 µM.
With `OCCC(F)(F)C(F)(F)C(F)(F)C(F)(F)F` [4:2 Fluorotelomer alcohol], the POD vs vehicle was > 100 µM.
The same measure, in the same setting: next, `O=S(=O)(O)CCC(F)(F)C(F)(F)C(F)(F)C(F)(F)F` [4:2 Fluorotelomer sulfonic acid]: > 100 µM; `OCC(F)(F)C(F)(F)C(F)(F)C(F)(F)C(F)(F)C(F)(F)F` [6:1 Fluorotelomer alcohol]: 74.9 µM; `NC(=O)C(F)(F)C(F)(F)C(F)(F)F` [Heptafluorobutyramide]: > 100 µM.
The same measure, in the same setting: next, `CN(CCO)S(=O)(=O)C(F)(F)C(F)(F)C(F)(F)C(F)(F)C(F)(F)C(F)(F)C(F)(F)C(F)(F)F` [N-Methyl-N-(2-hydroxyethyl)perfluorooctanesulfonamide]: > 100 µM; `NC(=O)C(F)(F)C(F)(F)C(F)(F)C(F)(F)C(F)(F)C(F)(F)C(F)(F)F` [Perfluorooctanamide]: > 100 µM; `N=C(N)C(F)(F)C(F)(F)C(F)(F)C(F)(F)C(F)(F)C(F)(F)C(F)(F)F` [Perfluorooctanamidine]: > 100 µM.

The test system of a further assay is 1392 (donor line of iPSC-derived cardiomyocytes). The assay is described as above. To be noted: exposure time: 90 min. As for the experimental part: as §1
Regarding `NC(=O)C(F)(F)C(F)(F)C(F)(F)C(F)F`, the POD vs vehicle was > 100 µM.
As for `OCC(O)CC(F)(F)C(F)(F)C(F)(F)C(F)(F)C(F)(F)C(F)(F)C(F)(F)C(F)(F)F` (centres undefined) [1-(Perfluorofluorooctyl)propane-2,3-diol], the POD vs vehicle was > 100 µM.
The same measure, in the same setting: to `CC(O)C(F)(F)C(F)(F)F` (centres undefined) [1-Pentafluoroethylethanol] belongs > 100 µM.
Regarding `OCC(F)(F)C(F)(F)C(F)(F)C(F)F` [1H,1H,5H-Perfluoropentanol], the POD vs vehicle was > 100 µM.
As to `O=S(=O)(OCC(F)(F)F)C(F)(F)C(F)(F)C(F)(F)C(F)(F)F` [2,2,2-Trifluoroethyl_perfluorobutanesulfonate], the POD vs vehicle was > 100 µM.
Still for that read-out and setting: to `O=C(O)C(F)(F)C(F)(F)C(F)F` [2,2,3,3,4,4-Hexafluorobutanoic_acid] belongs > 100 µM.
The same measure, in the same setting: to `NC(O)(C(F)(F)F)C(F)(F)F` [2-Aminohexafluoropropan-2-ol] belongs > 100 µM.
The same measure, in the same setting: next, `O=C(O)CCC(F)(F)C(F)(F)C(F)(F)C(F)(F)C(F)(F)F` [2H,2H,3H,3H-Perfluorooctanoic_acid]: 20.4 µM; `O=C(O)C=C(C(F)(F)F)C(F)(F)F` [3,3-Bis(trifluoromethyl)-2-propenoic_acid]: > 100 µM.
As to `O=C(O)C=CC(F)(C(F)(F)F)C(F)(F)F` [3-(Perfluoroisopropyl)-2-propenoic_acid], the POD vs vehicle is > 100 µM.
Still for that read-out and setting: to `O=C(O)CCC(F)(F)C(F)(F)C(F)(F)C(F)(F)C(F)(F)C(F)(F)C(F)(F)F` [3-Perfluoroheptylpropanoic_acid] belongs > 100 µM; to `O=C(O)CCC(F)(F)C(F)(F)C(F)(F)F` [3:3 Fluorotelomer carboxylic acid], > 100 µM.
The same measure, in the same setting: next, `O=C(CC(=O)C(F)(F)C(F)(F)F)C(F)(F)F` [3H,3H-Perfluoro-2,4-hexanedione]: > 100 µM; `OCCC(F)(F)C(F)(F)C(F)(F)C(F)(F)F` [4:2 Fluorotelomer alcohol]: > 100 µM.
On the same count and under the same terms, next, `O=S(=O)(O)CCC(F)(F)C(F)(F)C(F)(F)C(F)(F)F` [4:2 Fluorotelomer sulfonic acid]: > 100 µM.
For `OCC(F)(F)C(F)(F)C(F)(F)C(F)(F)C(F)(F)C(F)(F)F` [6:1 Fluorotelomer alcohol], the POD vs vehicle was > 100 µM.
`NC(=O)C(F)(F)C(F)(F)C(F)(F)F` [Heptafluorobutyramide]: the POD vs vehicle was > 100 µM.
Still for that read-out and setting: to `CN(CCO)S(=O)(=O)C(F)(F)C(F)(F)C(F)(F)C(F)(F)C(F)(F)C(F)(F)C(F)(F)C(F)(F)F` [N-Methyl-N-(2-hydroxyethyl)perfluorooctanesulfonamide] belongs > 100 µM.
